Patent US11401279B2, “Pyrido[3,2-d]pyrimidine compounds as immunomodulators” (Incyte Corporation, priority 2019, dated 2022)
pEC50, pIC50: −log10 of the molar value.

Columns and labels:
PD-1/PD-L1 = PD-1/PD-L1 (Homo sapiens (Human), UniProt Q9NZQ7); experiment: Homogeneous Time-Resolved Fluorescence (HTRF) PD-1/PD-L1 binding assay; settings: recombinant human PD-1 and PD-L1
Description: The assays were conducted in a standard black 384-well polystyrene plate with a final volume of 20 μL. Inhibitors were first serially diluted in DMSO and then added to the plate wells before the addition of other reaction components. The final concentration of DMSO in the assay was 1%. The assays were carried out at 25° C. in the PBS buffer (pH 7.4) with 0.05% Tween-20 and 0.1% BSA. Recombinant human PD-L1 protein (19-238) with a His-tag at the C-terminus was purchased from AcroBiosystems (PD1-H5229). Recombinant human PD-1 protein (25-167) with Fc tag at the C-terminus was also purchased from AcroBiosystems (PD1-H5257). PD-L1 and PD-1 proteins were diluted in the assay buffer and 10 μL was added to the plate well. Plates were centrifuged and proteins were preincubated with inhibitors for 40 minutes. The incubation was followed by the addition of 10 μL of HTRF detection buffer supplemented with Europium cryptate-labeled anti-human IgG (PerkinElmer-AD0212) specific for Fc and anti-His antibody conjugated to SureLight®-Allophycocyanin (APC, PerkinElmer-AD0059H). After centrifugation, the plate was incubated at 25° C. for 60 min. before reading on a PHERAstar FS plate reader (665 nm/620 nm ratio). Final concentrations in the assay were—3 nM PD1, 10 nM PD-L1, 1 nM europium anti-human IgG and 20 nM anti-His-Allophycocyanin. IC50 determination was performed by fitting the curve of percent control activity versus the log of the inhibitor concentration using the GraphPad Prism 5.0 software.

PD-L1 = PD-L1 (Homo sapiens (Human), UniProt Q9NZQ7); experiment: PD-L1 whole blood internalization assay; assay type: cell-based; settings: PD-L1 internalization in human whole blood, CD14+ cells, interferon γ, 24 hour
Description: To determine PD-L1 internalization in human whole blood, normal human blood (Biological Specialty Corp, Colmar. Pa.) was incubated in the presence or absence of a concentration range of test compounds and 1 ng/mL human interferon γ (R&D Systems Inc. Minn. […] Blood was then stained with PD-L1 (MIH1, eBioscience; or BD Biosciences San Jose, Calif.), CD14 (Life Technologies, Carlsbad, Calif.) for 30 minutes in the dark at room temperature. Whole Blood/red cells were lysed/fixed (lysis buffer BD Biosciences) for 5 minutes at 37° C. in the dark and then centrifuged at 1600 RPM for 5 minutes. Cells were resuspended in Stain Buffer (BD Bioscience, San Jose, Calif.) and transferred into 96 well round bottom plates (Corning). Cells were gated on CD14+(BD Biosciences) and PD-L1 expression determined by mean fluorescence intensity (MFI) (BD LSRFortessa™ X-20). IC50 determination was performed by fitting the curve of compound percent inhibition versus the log of the compound concentration using the GraphPad Prism 7.0 software.

[1] = tested on: U2OS/PD-L1 cells and Jurkat-PD-1-SHP cells; experiment: Src homology region 2 domain-containing phosphatase (SHP) assay; assay type: cell-based; settings: Homo sapiens, U2OS; PathHunter chemiluminescence, 2 hours
Description: U2OS/PD-L1 cells (DiscoveRx Corporation) were maintained in McCoy's 5A medium with addition of 10% FBS, 0.25 μg/mL Puromycin. After removing the culture media, the cell medium was replaced with assay medium (RPMI1640 medium with 1% FBS). The U2OS/PD-L1 cells were then added in 384-well black clear bottom assay plate (CELLCOAT® Tissue Culture Plates, Greiner Bio-One) at 5000 cells per well in 20 μL assay medium. Test compounds were prepared by serial dilution in DMSO and 125 nL compound were first transferred to the 384 REMP plate well (Thermofisher) by ECHO liquid handler (Labcyte) followed with addition of 27.5 μL assay medium. 5 µL/well compounds in the assay medium were transferred to the cell plate with 0.05% DMSO in the final assay at 0.25 μM. Jurkat-PD-1-SHP cells (DiscoveRx Corporation) were cultured in RPMI1640 medium supplemented with 10% FBS, 250 μg/mL Hygromycin B, 500 μg/mL G418. After the replacement of culture media with assay medium, 5,000 Jurkat-PD-1-SHP cells in 20 μL were dispensed into each well. The assay plate was incubated at 37° C., 5% CO2 for 2 hours before 2.5 μL PathHunter reagent 1 (DiscoveRx Corporation) were added to each well. The assay plate was shaken for 1 min at 350 rpm in the dark followed with addition of 10 μL PathHunter reagent 2 (DiscoveRx Corporation). Chemiluminescent signal was recorded with TopCount reader (Perkin Elmer) after incubation at room temperature for 1 hour. Wells with DMSO were served as the positive controls and wells containing no cells were used as negative controls. IC50 determination was performed by fitting the curve of percentage of control activity versus the log of the compound concentration using the GraphPad Prism 6.0 software.

[2] = tested on: PD-L1 aAPC/CHO-K1 cells and Jurkat-PD-1-NFAT effector cells; experiment: Nuclear factor of activated T-cells (NFAT) assay; assay type: cell-based; settings: Cricetulus griseus, CHO-K1; luminescence, 24 hours
Description: PD-L1 aAPC/CHO-Klcells (Promega) were maintained in F-12 medium with addition of 10% FBS, 200 μg/mL Hygromycin B, 250 μg/mL Geneticin (G418). Jurkat-PD-1-NFAT effector cells (Promega) were cultured in RPMI 1640 medium supplemented with 10% FBS, 100 μg/mL Hygromycin B, 500 μg/mL G418. The culture media of PD-L1 aAPC/CHO-K1 cells were first replaced with assay medium (RPMI1640 medium with 1% FBS). The PD-L1 aAPC/CHO-Klcells were then added in a white 384-well white clear bottom assay plate (CELLCOAT® Tissue Culture Plates, Greiner Bio-One) at 8000 per well in 10 μL assay medium. Test compounds were prepared by serial dilution in DMSO and 0.8 μL test compounds in DMSO were first transferred to the 384 REMP plate well (Thermofisher) by PlateMate Plus (Thermofisher) followed with addition of 50 μL plating medium. 5 μL compounds in the assay medium were transferred to the cells with 0.4% DMSO in the final assay at 2 μM. After removing the culture media, 10,000 Jurkat-PD-1-NFAT effector cells in 5 μL assay medium was dispensed into each well. The assay plate was incubated at 37° C., 5% CO2 for 24 hours. After the assay plate was equilibrated to room temp for 15 minutes, 20 μL/well of Bio-Glo™ reagent (Promega) were added. After 8 minutes incubation at room temperature, luminescence was read at with Pherastar microplate reader (BMG Labtech). The fold of induction (FOI) was calculated based on the ratio of luminescence normalized to the DMSO wells within each assay plate. The maximum percentage of induction was reported based on the ratio between the highest FOI of each compound and the maximum FOI of control compound within each assay plate. Wells with DMSO were served as the negative controls and wells containing control compound with the highest FOI were used as positive controls. EC50 determination was performed by fitting the curve of percent control activity versus the log of the compound concentration using the GraphPad Prism 6.0 software.

Chain of PD-1/PD-L1 (Q9NZQ7 19-238): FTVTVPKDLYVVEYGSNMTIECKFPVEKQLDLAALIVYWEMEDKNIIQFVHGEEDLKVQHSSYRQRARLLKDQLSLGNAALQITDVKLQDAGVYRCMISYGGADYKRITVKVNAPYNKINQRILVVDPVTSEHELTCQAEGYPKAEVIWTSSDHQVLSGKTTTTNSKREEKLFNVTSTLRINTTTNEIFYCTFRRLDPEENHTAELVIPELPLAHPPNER
Chain of PD-L1 (Q9NZQ7 19-290): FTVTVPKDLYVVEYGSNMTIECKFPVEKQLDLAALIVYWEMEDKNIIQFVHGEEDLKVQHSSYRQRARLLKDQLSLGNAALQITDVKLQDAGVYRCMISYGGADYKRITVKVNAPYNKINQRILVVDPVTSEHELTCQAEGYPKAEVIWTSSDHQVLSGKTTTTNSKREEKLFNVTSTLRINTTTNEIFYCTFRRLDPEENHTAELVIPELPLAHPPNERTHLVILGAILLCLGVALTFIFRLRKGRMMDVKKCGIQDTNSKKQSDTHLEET

| Compound | pIC50 (PD-1/PD-L1) | pIC50 (PD-L1) | pIC50 [1] | pEC50 [2] |
| --- | --- | --- | --- | --- |
| Cc1c(Nc2nc(C(F)F)nc3cc(CN4C[C@H](O)C[C@H]4C)cnc23)cccc1-c1cccc(NC(=O)c2nc3c(n2C)CCN(CCC24CCC(C(=O)O)(CC2)C4)C3)c1Cl [Example 11, 4-(2-(2-((2-chloro-3′-((2-(difluoromethyl)-7-(((2R,4R)-4-hydroxy-2-methylpyrrolidin-1-yl)methyl)pyrido[3,2-d]pyrimidin-4-yl)amino)-2′-methyl-[1,1′-biphenyl]-3-yl)carbamoyl)-1-methyl-1,4,6,7-tetrahydro-5H-imidazo[4,5-c]pyridin-5-yl)ethyl)bicyclo[2.2.1]heptane-1-carboxylic Acid] | 8.82 | 7.57 | 8.52 | 8.30 |
| Cc1c(Nc2nc(C(F)F)nc3cc(CN4CC[C@H](O)C4)cnc23)cccc1-c1cccc(NC(=O)c2nc3c(n2C)CCN(CCC24CCC(C(=O)O)(CC2)C4)C3)c1Cl [Example 3, (S)-4-(2-(2-((2-chloro-3′-((2-(difluoromethyl)-7-((3-hydroxypyrrolidin-1-yl)methyl)pyrido[3,2-d]pyrimidin-4-yl)amino)-2′-methyl-[1,1′-biphenyl]-3-yl)carbamoyl)-1-methyl-1,4,6,7-tetrahydro-5H-imidazo[4,5-c]pyridin-5-yl)ethyl)bicyclo[2.2.1]heptane-1-carboxylic Acid] | 8.82 | 7.74 | 8.60 | 8.40 |
| Cc1c(Nc2nc(C(F)F)nc3cc(CN4CCCC4)cnc23)cccc1-c1cccc(NC(=O)c2nc3c(n2C)CCN(CCC24CCC(C(=O)O)(CC2)C4)C3)c1Cl [Example 7, 4-(2-(2-((2-chloro-3′-((2-(difluoromethyl)-7-(pyrrolidin-1-ylmethyl)pyrido[3,2-d]pyrimidin-4-yl)amino)-2′-methyl-[1,1′-biphenyl]-3-yl)carbamoyl)-1-methyl-1,4,6,7-tetrahydro-5H-imidazo[4,5-c]pyridin-5-yl)ethyl)bicyclo[2.2.1]heptane-1-carboxylic Acid] | 8.82 | 7.80 | 8.66 | 8.40 |
| Cc1c(Nc2nc(C(F)F)nc3cc(CN4C[C@H](O)C[C@@H]4C)cnc23)cccc1-c1cccc(NC(=O)c2nc3c(n2C)CCN(CCC24CCC(C(=O)O)(CC2)C4)C3)c1Cl [Example 10, 4-(2-(2-((2-chloro-3′-((2-(difluoromethyl)-7-(((2S,4R)-4-hydroxy-2-methylpyrrolidin-1-yl)methyl)pyrido[3,2-d]pyrimidin-4-yl)amino)-2′-methyl-[1,1′-biphenyl]-3-yl)carbamoyl)-1-methyl-1,4,6,7-tetrahydro-5H-imidazo[4,5-c]pyridin-5-yl)ethyl)bicyclo[2.2.1]heptane-1-carboxylic Acid] | 8.82 | 7.46 | 8.40 | 8.40 |
| Cc1c(NC(=O)c2nc3c(n2C)CCN(CCC24CCC(C(=O)O)(CC2)C4)C3)cccc1-c1cccc(Nc2nc(C(F)F)nc3cc(CN4CC[C@H](O)C4)cnc23)c1C [Example 15, (S)-4-(2-(2-((3′-((2-(difluoromethyl)-7-((3-hydroxypyrrolidin-1-yl)methyl)pyrido[3,2-d]pyrimidin-4-yl)amino)-2,2′-dimethyl-[1,1′-biphenyl]-3-yl)carbamoyl)-1-methyl-1,4,6,7-tetrahydro-5H-imidazo[4,5-c]pyridin-5-yl)ethyl)bicyclo[2.2.1]heptane-1-carboxylic Acid] | 8.82 | 7.24 | 8.54 | 8.05 |
| Cc1c(Nc2nc(C(F)F)nc3cc(CN[C@@H]4CCC[C@@H]4O)cnc23)cccc1-c1cccc(NC(=O)c2nc3c(n2C)CCN(CCC24CCC(C(=O)O)(CC2)C4)C3)c1Cl [Example 9, 4-(2-(2-((2-chloro-3′-((2-(difluoromethyl)-7-((((1R,2S)-2-hydroxycyclopentyl)amino)methyl)pyrido[3,2-d]pyrimidin-4-yl)amino)-2′-methyl-[1,1′-biphenyl]-3-yl)carbamoyl)-1-methyl-1,4,6,7-tetrahydro-5H-imidazo[4,5-c]pyridin-5-yl)ethyl)bicyclo[2.2.1]heptane-1-carboxylic Acid] | 8.77 | 8.19 | 8.40 | 8.52 |
| Cc1c(NC(=O)c2nc3c(n2C)CCN(C)C3)cccc1-c1cccc(NC(=O)c2nc3c(n2C)CCN(CC24CCC(C(=O)O)(CC2)C4)C3)c1Cl [Example 119, reference compound] | 8.47 | 6.75 | 8.31 | 7.09 |
| C[C@H](O)CN1CCc2c(nc(C(=O)Nc3cccc(-c4cccc(NC(=O)c5nc6c(n5C)CCN(CC57CCC(C(=O)O)(CC5)C7)C6)c4Cl)c3Cl)n2C)C1 [Example 181, reference compound] | 8.80 | 6.79 | 8.21 | 7.39 |
| Cc1c(NC(=O)c2nc3c(n2C)CCN(CCC24CCC(C(=O)O)(CC2)C4)C3)cccc1-c1cccc(Nc2nc(C(F)F)nc3cc(CN4CC[C@](C)(O)C4)cnc23)c1C [Example 16, (S)-4-(2-(2-((3′-((2-(difluoromethyl)-7-((3-hydroxy-3-methylpyrrolidin-1-yl)methyl)pyrido[3,2-d]pyrimidin-4-yl)amino)-2,2′-dimethyl-[1,1′-biphenyl]-3-yl)carbamoyl)-1-methyl-1,4,6,7-tetrahydro-5H-imidazo[4,5-c]pyridin-5-yl)ethyl)bicyclo[2.2.1]heptane-1-carboxylic Acid] | 8.77 | 7.28 | 8.62 | 8.22 |
